Measurements reported in patent US5145783A, “Glyphosate-tolerant 5-endolpyruvyl-3-phosphoshikimate synthase” (Monsanto Company, priority 1990, dated 1992).
Entries after “also recorded” stand apart in the source; their conditions may differ.

Key:
[1] = tested on: tobacco plants transformed with wild-type EPSP synthase gene; test: Relative effect of glyphosate spray on transformed tobacco, wild-type gene; type: in vivo, Nicotiana tabacam CV H425; parameters: key: 0 = total kill, 10 = normal unsprayed plant; settings: WT
Excerpt: A culture of A. tumefaciens cells containing pMON567/pGV3111-SE was contacted with leaf disks taken from tobacco plants (Nicotiana tabacam CV H425) as described by Horsch (1985). The Agrobacterium cells inserted the mutant EPSP synthase gene into the chromosomes of the plant cells. Plant cells resistant to kanamycin were selected and regenerated into differentiated plants by the procedure of Horsch (1985).
Progeny of these plants were propagated and grown to a rosette diameter of about 10 cm corresponding to a plant age of about four weeks. The plants were sprayed with glyphosate at levels corresponding to 2.0 and 3.6 pounds acid equiv./acre. […] The effect was translated to a numerical scale of 0-10 in which 0 represents total kill and 10 is the normal, unsprayed plant. […] The values represent the best transformant for both wild-type EPSP synthase and glyphosate-tolerant EPSP synthase genes.

[2] = tested on: petunia plants transformed with chimeric EPSP synthase gene (pMON546); test: Plant response to glyphosate spraying, transformed plants; type: in vivo; settings: 0.8 #/acre acid equivalent, isopropylamine salt sprayed
Method: (§1) Four individual representative transgenic seedlings were selected, grown and tested in the testing procedure described below, along with four individual non-transformed (wild-type) petunia seedlings.
(§2) The plants were grown in a growth medium in a growth chamber at 26° C. with 12 hours of light per day. The plants were fertilized weekly with a soluble fertilizer and watered as needed. The plants were sprayed at a uniform and reproducible delivery rate of herbicide by use of an automated track sprayer. The glyphosate solution used was measured as pounds of glyphosate acid equivalents per acre, mixed as the glyphosate isopropylamine salt, with an ionic surfactant.
(§3) Four individual wild-type (non-transformed) petunia plants were selected for use as control plants. Four individual transformed plants containing the pMON546 vector were selected by kanamycin resistance as described in Horsch et al. (1985).
(§4) The control plants and the transformed plants were sprayed with the isopropylamine salt of glyphosate at the application level listed in Table 2 below; the experimental results obtained are also summarized in Table 2.

[3] = molecular target: T1, glyphosate-tolerant petunia EPSP synthase (alanine for glycine at position 101) (Petunia hybrida, UniProt P11043, G173A); test: EPSP synthase inhibition, petunia enzyme carrying the alanine for glycine substitution; type: biochemical
T1 construct: made in house; host or cells: E. coli (overproducing), extract
Excerpt: The EPSP synthase in the extracts was further characterized by titrating the resistance to glyphosate.

[4] = tested on: wild-type (non-transformed) petunia plants; test: Plant response to glyphosate spraying, control plants; type: in vivo; settings: 0.8 #/acre acid equivalent, isopropylamine salt sprayed
Method: as §1, §2, §3, §4

T1 sequence (P11043 73-516 G173A): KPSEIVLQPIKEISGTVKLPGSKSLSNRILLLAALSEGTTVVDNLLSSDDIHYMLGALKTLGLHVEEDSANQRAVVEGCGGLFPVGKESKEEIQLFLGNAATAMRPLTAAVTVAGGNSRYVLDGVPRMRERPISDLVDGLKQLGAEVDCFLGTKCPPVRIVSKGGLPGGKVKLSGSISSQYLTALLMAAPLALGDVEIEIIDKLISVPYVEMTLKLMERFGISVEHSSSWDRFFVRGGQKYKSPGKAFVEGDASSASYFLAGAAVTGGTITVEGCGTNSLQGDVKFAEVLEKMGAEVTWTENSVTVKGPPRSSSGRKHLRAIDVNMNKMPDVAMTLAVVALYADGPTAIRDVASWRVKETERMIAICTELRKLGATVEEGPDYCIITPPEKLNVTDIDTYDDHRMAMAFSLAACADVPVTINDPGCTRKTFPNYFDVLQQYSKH

SMILES: O=C(O)CNCP(=O)(O)O [glyphosate, N-phosphonomethylglycine]
- Relative effect of glyphosate (0 total kill, 10 no effect) ([1]; 0.4 Pounds/Acre, Day 7, best transformant): 6.0
- Relative effect of glyphosate (0 total kill, 10 no effect) ([1]; 0.4 Pounds/Acre, Day 14, best transformant): 7.0
- Relative effect of glyphosate (0 total kill, 10 no effect) ([1]; 0.4 Pounds/Acre, Day 28, best transformant): 9.0
- Relative effect of glyphosate (0 total kill, 10 no effect) ([1]; 2.0 Pounds/Acre, Day 7, best transformant): 5.0
- Relative effect of glyphosate (0 total kill, 10 no effect) ([1]; 2.0 Pounds/Acre, Day 14, best transformant): 1.8
- Relative effect of glyphosate (0 total kill, 10 no effect) ([1]; 2.0 Pounds/Acre, Day 28, best transformant): 0.8
- Relative effect of glyphosate (0 total kill, 10 no effect) ([1]; 3.6 Pounds/Acre, Day 7, best transformant): 5.0
- Relative effect of glyphosate (0 total kill, 10 no effect) ([1]; 3.6 Pounds/Acre, Day 14, best transformant): 1.7
- Relative effect of glyphosate (0 total kill, 10 no effect) ([1]; 3.6 Pounds/Acre, Day 28, best transformant): 0.8
- Visual Appearance [2]: growing well; also recorded: healthy and viable
- IC50 [3]: 16 mM
- Visual Appearance [4]: completely dead; also recorded: killed
